Legend:
Assay type in all cases: cell-based, human
MCC13 cells (VN-MCC) = assay: qHTS cell viability (CellTiter-Glo, 72 h; primary and follow-up small molecule screen); details: MCC13, 72h
MCC26 cells (VN-MCC) = assay: as above; details: MCC26, 72h
UISO cells (VN-MCC) = assay: as above; details: UISO, 72h
WAGA cells (VP-MCC) = assay: as above; details: WAGA, 72h
MKL-1 cells (VP-MCC) = assay: as above; details: MKL1, 72h
MKL-2 cells (VP-MCC) = assay: as above; details: MKL2, 72h
[1] = system: VP-MCC cell lines (WAGA, MKL-1, MKL-2); assay: qHTS cell viability, VP-MCC cell lines as a group (mean AUC, VP.MCC.avg); details: re-tested in triplicate, follow-up screen
GDSC cancer cell lines = assay: Genomics of Drug Sensitivity in Cancer (GDSC) IC50 comparison across cancer cell lines; details: own IC50 estimates compared with public IC50 data
Protocol: Palo Alto, CA, USA) for these compounds from our small molecule screen. Following the graphing format in the GDSC database, compounds were ranked by IC50 and plotted in Rstudio using ggplot2, ggrepel, and scales packages. page 9: Supplementary Fig. S6. Au rora kinase inhibi tors mor e potentl y reduc e viability in VP-MCC than VN-MCC. […] Cell viability was measured by CellTiter- Glo at 72 h and by manual cell counts at 144 h. […] Consistent across n = 3 replicates . B) IC50 values (molar) for each aurora kinase inhibitor in each MCC cell line. […] IC50 values from GDSC (Gray-scale and green) were combined with IC50 values determined in our study (purple) and then ranked. n = number of experimental replicates for each cell line.

CCn1cc(-c2ccnc3[nH]c(-c4cccc(CN(C)C)c4)cc23)c(-c2ccc(NC(=O)N(C)C)cc2)n1 [GSK-1070916A, reference compound] gave a Percent viability (MCC13 cells (VN-MCC); Log (M) -5.33646) of 0.9%, a Percent viability (MCC13 cells (VN-MCC); Log (M) -5.81358) of 37.2% and a Percent viability (MCC13 cells (VN-MCC); Log (M) -6.2907) of 74.5%. For the same compound, the Percent viability (MCC13 cells (VN-MCC); Log (M) -6.76782) was 88.4%, the Percent viability (MCC13 cells (VN-MCC); Log (M) -7.24494) was 96.7% and the Percent viability (MCC13 cells (VN-MCC); Log (M) -7.72207) was 113.8%. It also gave a Percent viability (MCC13 cells (VN-MCC); Log (M) -8.19919) of 87.1%, a Percent viability (MCC13 cells (VN-MCC); Log (M) -8.67631) of 100.5% and a Percent viability (MCC13 cells (VN-MCC); Log (M) -9.15343) of 112.0%. It also gave a Percent viability (MCC13 cells (VN-MCC); Log (M) -9.63055) of 98.4%, a Percent viability (MCC13 cells (VN-MCC); Log (M) -10.1077) of 100.0% and a Percent viability (MCC26 cells (VN-MCC); Log (M) -5.33646) of 11.3%. It also gave a Percent viability (MCC26 cells (VN-MCC); Log (M) -5.81358) of 9.7%, a Percent viability (MCC26 cells (VN-MCC); Log (M) -6.2907) of 42.5% and a Percent viability (MCC26 cells (VN-MCC); Log (M) -6.76782) of 75.5%. For the same compound, the Percent viability (MCC26 cells (VN-MCC); Log (M) -7.24494) was 88.6%, the Percent viability (MCC26 cells (VN-MCC); Log (M) -7.72207) was 92.0% and the Percent viability (MCC26 cells (VN-MCC); Log (M) -8.19919) was 93.6%. It also gave a Percent viability (MCC26 cells (VN-MCC); Log (M) -8.67631) of 92.5%, a Percent viability (MCC26 cells (VN-MCC); Log (M) -9.15343) of 92.1% and a Percent viability (MCC26 cells (VN-MCC); Log (M) -9.63055) of 87.6%. For the same compound, the Percent viability (MCC26 cells (VN-MCC); Log (M) -10.1077) was 89.3%, the Percent viability (UISO cells (VN-MCC); Log (M) -5.33646) was 0.3% and the Percent viability (UISO cells (VN-MCC); Log (M) -5.81358) was 33.6%. For the same compound, the Percent viability (UISO cells (VN-MCC); Log (M) -6.2907) was 52.9%, the Percent viability (UISO cells (VN-MCC); Log (M) -6.76782) was 71.1% and the Percent viability (UISO cells (VN-MCC); Log (M) -7.24494) was 86.6%. The Percent viability (UISO cells (VN-MCC); Log (M) -7.72207) was 91.6%, the Percent viability (UISO cells (VN-MCC); Log (M) -8.19919) was 90.7% and the Percent viability (UISO cells (VN-MCC); Log (M) -8.67631) was 81.3%. It also gave a Percent viability (UISO cells (VN-MCC); Log (M) -9.15343) of 106.7%, a Percent viability (UISO cells (VN-MCC); Log (M) -9.63055) of 103.4% and a Percent viability (UISO cells (VN-MCC); Log (M) -10.1077) of 104.7%. For the same compound, the Percent viability (WAGA cells (VP-MCC); Log (M) -5.33646) was 2.1%, the Percent viability (WAGA cells (VP-MCC); Log (M) -5.81358) was 12.6% and the Percent viability (WAGA cells (VP-MCC); Log (M) -6.2907) was 31.4%. It also gave a Percent viability (WAGA cells (VP-MCC); Log (M) -6.76782) of 40.3%, a Percent viability (WAGA cells (VP-MCC); Log (M) -7.24494) of 26.0% and a Percent viability (WAGA cells (VP-MCC); Log (M) -7.72207) of 27.1%. It also gave a Percent viability (WAGA cells (VP-MCC); Log (M) -8.19919) of 28.3%, a Percent viability (WAGA cells (VP-MCC); Log (M) -8.67631) of 104.6% and a Percent viability (WAGA cells (VP-MCC); Log (M) -9.15343) of 100.0%. For the same compound, the Percent viability (WAGA cells (VP-MCC); Log (M) -9.63055) was 103.0%, the Percent viability (WAGA cells (VP-MCC); Log (M) -10.1077) was 100.0% and the Percent viability (MKL-1 cells (VP-MCC); Log (M) -5.33646) was 0.6%. For the same compound, the Percent viability (MKL-1 cells (VP-MCC); Log (M) -5.81358) was 0.7%, the Percent viability (MKL-1 cells (VP-MCC); Log (M) -6.2907) was 25.3% and the Percent viability (MKL-1 cells (VP-MCC); Log (M) -6.76782) was 39.6%. The Percent viability (MKL-1 cells (VP-MCC); Log (M) -7.24494) was 24.8%, the Percent viability (MKL-1 cells (VP-MCC); Log (M) -7.72207) was 28.8% and the Percent viability (MKL-1 cells (VP-MCC); Log (M) -8.19919) was 32.4%. For the same compound, the Percent viability (MKL-1 cells (VP-MCC); Log (M) -8.67631) was 60.3%, the Percent viability (MKL-1 cells (VP-MCC); Log (M) -9.15343) was 97.5% and the Percent viability (MKL-1 cells (VP-MCC); Log (M) -9.63055) was 94.1%. It also gave a Percent viability (MKL-1 cells (VP-MCC); Log (M) -10.1077) of 98.1%, a Percent viability (MKL-2 cells (VP-MCC); Log (M) -5.33646) of 1.0% and a Percent viability (MKL-2 cells (VP-MCC); Log (M) -5.81358) of 2.3%. It also gave a Percent viability (MKL-2 cells (VP-MCC); Log (M) -6.2907) of 21.5%, a Percent viability (MKL-2 cells (VP-MCC); Log (M) -6.76782) of 34.0% and a Percent viability (MKL-2 cells (VP-MCC); Log (M) -7.24494) of 33.8%. It also gave a Percent viability (MKL-2 cells (VP-MCC); Log (M) -7.72207) of 50.1%, a Percent viability (MKL-2 cells (VP-MCC); Log (M) -8.19919) of 59.6% and a Percent viability (MKL-2 cells (VP-MCC); Log (M) -8.67631) of 59.6%. For the same compound, the Percent viability (MKL-2 cells (VP-MCC); Log (M) -9.15343) was 98.0%, the Percent viability (MKL-2 cells (VP-MCC); Log (M) -9.63055) was 107.1% and the Percent viability (MKL-2 cells (VP-MCC); Log (M) -10.1077) was 88.8%. For the same compound, the “VP-MCC viability (in words)” value [1] was “consistently and potently reduced VP-MCC viability” and the “potency in VP-MCC cell lines versus other human cancer cell lines (GDSC)” value (GDSC cancer cell lines) was “higher in VP-MCC cell lines than in hundreds of other human cancer cell lines”.

— paper PMC11822212, “High-throughput screening identifies Aurora kinase B as a critical therapeutic target for Merkel cell carcinoma” (Nature Communications, 2025)
